According to ChEMBL document CHEMBL1201862, “PubChem BioAssay data set” (2004):
Blank lines part the entries; values can stand above or below the compound they belong to. Active and inactive are the calls of the source.

Tests used:
[1] = target: T1, Cannabinoid receptor 2 (Homo sapiens, UniProt P34972); experiment: SAR analysis of antagonists of the Cannabinoid Receptor 2 using an Image-Based Assay - Set 3. [Related pubchem assays (depositor defined):AID2013, AID2026]; type: functional
[2] = target: T2, Cannabinoid receptor 1 (Homo sapiens, UniProt P21554); experiment: SAR analysis of antagonists of the Cannabinoid Receptor 1 using an Image-Based Assay - Set 4. [Related pubchem assays (depositor defined):AID2013, AID2026]; type: functional
[3] = target: G-protein coupled receptor 55 (Homo sapiens, UniProt Q9Y2T6); experiment: SAR Analysis of Selective Antagonists of GPR55 using an Image-Based Assay - Set 4. [Related pubchem assays (depositor defined):AID2013, AID2026]; type: functional;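 further: antagonism of response to 5 µM lysophosphatidylinositol agonist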
[4] = target: T2, Cannabinoid receptor 1; experiment: SAR analysis of agonists of the Cannabinoid Receptor 1 using an Image-Based Assay - Set 4. [Related pubchem assays (depositor defined):AID2013, AID2026]; type: functional
[5] = target: T1, Cannabinoid receptor 2; experiment: SAR analysis of agonists of the Cannabinoid Receptor 2 using an Image-Based Assay - Set 3. [Related pubchem assays (depositor defined):AID2013, AID2026]; type: functional
[6] = target: T3, G-protein coupled receptor 35 (Homo sapiens, UniProt Q9HC97); experiment: SAR analysis of Agonists of the GPR35 Receptor using an Image-Based Assay - Set 4. [Related pubchem assays (depositor defined):AID2013, AID2026]; type: functional
[7] = target: T3, G-protein coupled receptor 35; experiment: SAR analysis of Antagonists of the GPR35 Receptor using an Image-Based Assay - Set 6. [Related pubchem assays (depositor defined):AID2013, AID2026]; type: functional
[8] = target: T4, Runt-related transcription factor 1/Core-binding factor subunit beta (Homo sapiens, UniProt Q01196+Q13951); experiment: Runt domain/CBFb-SMMHC interaction disruptors – biochemical, TR-FRET (AID 1438); type: protein assay
[9] = target: T4, Runt-related transcription factor 1/Core-binding factor subunit beta; experiment: disruptors of Runt domain/CBFb-SMMHC interaction – biochemical, FRET, Cerulean-Runt, Venus-CBFb-SMMHC, uHTS, […] (AID 1434); type: protein assay
[10] = target: T5, Kappa-type opioid receptor (Homo sapiens, UniProt P41145); experiment: SAR analysis of small molecule antagonists of the kappa opioid receptor via a luminescent beta-arrestin assay - Set 5. [Related pubchem assays (depositor defined):AID1778, AID1785]; type: functional
[11] = target: T5, Kappa-type opioid receptor; experiment: SAR analysis of small molecule antagonists of the kappa opioid receptor via a luminescent beta-arrestin assay - Set 4. [Related pubchem assays (depositor defined):AID1777, AID1778, AID1785, AID1786, AID1966, AID2133, AID2136, AID2285]; type: functional
[12] = target: T6, Delta-type opioid receptor (Homo sapiens, UniProt P41143); experiment: DOR agonists, SAR follow-up, image-based (AID 2370); type: functional
[13] = target: T5, Kappa-type opioid receptor; experiment: SAR analysis of small molecule agonists of the kappa opioid receptor via a luminescent beta-arrestin assay. [Related pubchem assays (depositor defined):AID1777, AID1786, AID1966, AID2133, AID2136, AID2348, AID2352, AID2357, AID2359, AID2370, AID2420, AID2478, AID2491, AID2492, AID2493, AID2497, AID2498, AID2500, AID449737, AID488822, AID488842]; type: functional
[14] = target: T7, Mu-type opioid receptor (Homo sapiens, UniProt P35372); experiment: mu opioid receptor activators, image-based, SAR follow-up (AID 2352); type: functional
[15] = target: T7, Mu-type opioid receptor; experiment: mu opioid receptor blockers – image-based, SAR follow-up (AID 2420); type: functional;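 further: compounds added before stimulation of receptor with agonist DAMGO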
[16] = target: Melanin-concentrating hormone receptor 1 (Homo sapiens, UniProt Q99705); experiment: Fluorescence-based counterscreen for antagonists of the G-protein coupled receptor 7 (GPR7): cell-based high throughput dose response assay to identify antagonists of the melanin-concentrating hormone receptor 1 (MCHR1).; type: functional
[17] = target: T8, Neuropeptides B/W receptor type 1 (Homo sapiens, UniProt P48145); experiment: Fluorescence-based dose response cell-based high throughput screening assay to identify antagonists of the G-protein coupled receptor 7 (GPR7). [Related pubchem assays: 1952 (Screening assay (GPR7 antagonists).), 1880 (Summary AID.)]; type: functional
T8 sequence (P48145 whole entry): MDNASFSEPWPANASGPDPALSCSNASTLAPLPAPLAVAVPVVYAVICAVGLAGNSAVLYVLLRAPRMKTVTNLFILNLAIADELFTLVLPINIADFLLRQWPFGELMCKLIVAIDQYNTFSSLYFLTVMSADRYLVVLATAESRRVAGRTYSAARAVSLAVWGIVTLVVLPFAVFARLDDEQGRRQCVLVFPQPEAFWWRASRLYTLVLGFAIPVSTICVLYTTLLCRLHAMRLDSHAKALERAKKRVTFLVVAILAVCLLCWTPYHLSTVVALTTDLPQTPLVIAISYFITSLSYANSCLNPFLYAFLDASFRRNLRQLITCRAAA

[18] = target: T6, Delta-type opioid receptor; experiment: delta opioid receptor blockers – image-based, SAR follow-up (AID 2357); type: functional
[19] = target: T5, Kappa-type opioid receptor; experiment: kappa opioid receptor activation potency – imaging, image-based, SAR follow-up (AID 2359); type: functional
[20] = target: T5, Kappa-type opioid receptor; experiment: kappa opioid receptor blockers, image-based, SAR follow-up (AID 2348); type: functional

T5 sequence (P41145 whole entry): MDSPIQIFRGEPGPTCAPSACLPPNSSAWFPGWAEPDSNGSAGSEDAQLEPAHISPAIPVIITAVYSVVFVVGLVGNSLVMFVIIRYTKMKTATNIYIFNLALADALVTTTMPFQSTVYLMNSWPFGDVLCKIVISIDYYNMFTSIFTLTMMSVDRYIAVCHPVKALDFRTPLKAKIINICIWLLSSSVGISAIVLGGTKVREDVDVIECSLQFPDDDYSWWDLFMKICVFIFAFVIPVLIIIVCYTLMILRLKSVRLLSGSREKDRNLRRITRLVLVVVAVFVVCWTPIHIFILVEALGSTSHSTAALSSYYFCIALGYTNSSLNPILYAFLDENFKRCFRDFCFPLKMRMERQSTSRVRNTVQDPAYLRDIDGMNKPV
T7 sequence (P35372 whole entry): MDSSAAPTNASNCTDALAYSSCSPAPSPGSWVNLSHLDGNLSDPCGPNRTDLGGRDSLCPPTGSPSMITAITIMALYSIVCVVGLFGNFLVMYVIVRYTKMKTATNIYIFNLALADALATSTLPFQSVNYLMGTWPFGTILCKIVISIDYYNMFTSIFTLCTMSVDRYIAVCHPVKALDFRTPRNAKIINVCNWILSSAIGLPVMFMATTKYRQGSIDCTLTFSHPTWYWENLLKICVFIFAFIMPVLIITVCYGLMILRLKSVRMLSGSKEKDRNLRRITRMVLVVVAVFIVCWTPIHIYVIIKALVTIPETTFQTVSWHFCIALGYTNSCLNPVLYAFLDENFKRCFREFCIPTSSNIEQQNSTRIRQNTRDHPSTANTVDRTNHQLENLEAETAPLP
T1 sequence (P34972 whole entry): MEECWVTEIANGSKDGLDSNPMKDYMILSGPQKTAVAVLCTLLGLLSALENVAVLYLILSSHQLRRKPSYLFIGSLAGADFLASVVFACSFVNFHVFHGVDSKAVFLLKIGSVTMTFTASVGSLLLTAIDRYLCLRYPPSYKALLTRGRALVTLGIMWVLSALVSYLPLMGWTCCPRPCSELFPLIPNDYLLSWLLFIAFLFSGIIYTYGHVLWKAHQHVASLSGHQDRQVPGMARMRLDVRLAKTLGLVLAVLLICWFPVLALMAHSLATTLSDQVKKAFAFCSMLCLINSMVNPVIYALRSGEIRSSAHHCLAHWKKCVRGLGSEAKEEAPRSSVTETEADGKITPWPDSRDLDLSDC
T3 sequence (Q9HC97 whole entry): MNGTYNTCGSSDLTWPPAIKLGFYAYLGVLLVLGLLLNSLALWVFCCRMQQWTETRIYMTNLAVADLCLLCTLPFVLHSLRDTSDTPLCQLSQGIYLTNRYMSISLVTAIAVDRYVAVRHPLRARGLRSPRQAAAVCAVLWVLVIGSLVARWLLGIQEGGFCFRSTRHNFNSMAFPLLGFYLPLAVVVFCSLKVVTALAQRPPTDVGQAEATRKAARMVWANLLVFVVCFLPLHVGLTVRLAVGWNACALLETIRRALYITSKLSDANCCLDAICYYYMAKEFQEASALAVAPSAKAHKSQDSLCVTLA
T6 sequence (P41143 whole entry): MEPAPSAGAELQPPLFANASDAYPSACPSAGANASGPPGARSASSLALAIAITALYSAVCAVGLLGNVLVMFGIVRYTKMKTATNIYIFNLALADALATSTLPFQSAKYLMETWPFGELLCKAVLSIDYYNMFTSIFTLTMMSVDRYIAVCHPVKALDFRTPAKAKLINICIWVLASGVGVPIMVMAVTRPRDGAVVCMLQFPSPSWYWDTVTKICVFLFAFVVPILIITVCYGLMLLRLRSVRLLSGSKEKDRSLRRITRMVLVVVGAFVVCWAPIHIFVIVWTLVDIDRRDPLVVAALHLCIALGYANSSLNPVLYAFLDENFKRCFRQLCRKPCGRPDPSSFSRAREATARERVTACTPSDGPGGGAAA
T2 sequence (P21554 whole entry): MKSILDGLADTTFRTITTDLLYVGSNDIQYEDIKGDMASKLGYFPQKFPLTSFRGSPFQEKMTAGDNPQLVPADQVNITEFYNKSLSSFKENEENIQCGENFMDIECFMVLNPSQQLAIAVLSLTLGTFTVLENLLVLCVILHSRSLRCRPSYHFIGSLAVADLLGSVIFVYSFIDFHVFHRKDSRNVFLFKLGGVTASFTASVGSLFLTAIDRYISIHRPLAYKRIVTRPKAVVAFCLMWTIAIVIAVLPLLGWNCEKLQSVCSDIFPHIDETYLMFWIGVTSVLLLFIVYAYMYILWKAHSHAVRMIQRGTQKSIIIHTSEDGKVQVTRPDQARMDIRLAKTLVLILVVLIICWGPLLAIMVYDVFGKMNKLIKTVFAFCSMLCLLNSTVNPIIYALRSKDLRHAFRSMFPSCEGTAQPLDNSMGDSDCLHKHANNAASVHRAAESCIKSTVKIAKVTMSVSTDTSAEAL
T4 sequence (Q01196 whole entry, the tested form may be a part): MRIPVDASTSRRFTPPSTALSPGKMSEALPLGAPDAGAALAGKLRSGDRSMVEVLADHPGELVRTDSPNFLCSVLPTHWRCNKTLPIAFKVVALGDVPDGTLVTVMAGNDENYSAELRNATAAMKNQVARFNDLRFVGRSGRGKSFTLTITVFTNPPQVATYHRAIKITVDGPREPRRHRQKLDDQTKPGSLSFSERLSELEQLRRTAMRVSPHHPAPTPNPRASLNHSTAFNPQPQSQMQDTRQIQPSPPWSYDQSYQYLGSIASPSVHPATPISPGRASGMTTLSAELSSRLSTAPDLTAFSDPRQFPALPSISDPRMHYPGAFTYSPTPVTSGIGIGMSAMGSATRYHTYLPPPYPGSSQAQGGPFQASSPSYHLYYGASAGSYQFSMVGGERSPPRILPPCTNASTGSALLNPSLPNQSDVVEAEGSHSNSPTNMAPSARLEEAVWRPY
T4 sequence (Q13951 whole entry, the tested form may be a part): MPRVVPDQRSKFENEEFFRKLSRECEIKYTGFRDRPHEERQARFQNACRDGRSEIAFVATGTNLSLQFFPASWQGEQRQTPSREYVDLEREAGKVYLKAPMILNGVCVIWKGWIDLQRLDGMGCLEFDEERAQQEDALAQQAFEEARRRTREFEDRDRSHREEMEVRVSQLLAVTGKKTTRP
Sequence of G-protein coupled receptor 55 (Q9Y2T6 whole entry): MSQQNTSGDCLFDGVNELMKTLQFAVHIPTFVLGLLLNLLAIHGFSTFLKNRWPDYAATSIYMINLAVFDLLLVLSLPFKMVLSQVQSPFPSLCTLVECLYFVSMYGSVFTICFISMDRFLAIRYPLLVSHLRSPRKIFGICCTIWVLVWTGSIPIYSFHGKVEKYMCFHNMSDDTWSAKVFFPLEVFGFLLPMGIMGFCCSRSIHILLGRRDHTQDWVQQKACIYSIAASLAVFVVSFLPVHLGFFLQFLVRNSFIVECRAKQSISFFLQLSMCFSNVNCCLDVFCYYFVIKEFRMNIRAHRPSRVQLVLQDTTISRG
Sequence of Melanin-concentrating hormone receptor 1 (Q99705 whole entry): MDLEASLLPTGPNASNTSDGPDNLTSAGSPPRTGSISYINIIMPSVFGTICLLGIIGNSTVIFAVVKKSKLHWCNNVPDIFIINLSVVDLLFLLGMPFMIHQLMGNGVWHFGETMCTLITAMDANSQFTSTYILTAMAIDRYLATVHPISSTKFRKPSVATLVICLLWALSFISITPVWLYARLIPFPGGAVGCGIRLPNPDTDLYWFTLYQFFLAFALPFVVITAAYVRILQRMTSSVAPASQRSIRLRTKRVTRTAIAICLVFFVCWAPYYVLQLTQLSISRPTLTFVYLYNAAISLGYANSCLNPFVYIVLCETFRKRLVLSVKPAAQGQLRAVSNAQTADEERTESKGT

IC50 [1]: > 32 µM (inactive)
IC50 [2]: > 32 µM (inactive)
IC50 [3]: 29.7 µM (inactive)
EC50 [4]: > 32 µM (inactive)
EC50 [5]: 3.01 µM (active)
EC50 [6]: > 32 µM (inactive)
IC50 [7]: > 32 µM (inactive)
SMILES: CCNC(=O)c1cc2c(=O)n3ccccc3nc2n(C2CCCC2)c1=N

IC50 [8]: > 100 µM (inactive)
IC50 [9]: > 100 µM (inactive)
SMILES: CC(C)C(=O)N(c1cc2sc(=O)oc2c2ccccc12)S(=O)(=O)c1cccs1

IC50 [10]: 2.34 µM (active)
IC50 [11]: 2.49 µM (active)
SMILES: Cc1ccccc1S(=O)(=O)NCc1ccc(C(=O)NCCN(Cc2ccccc2)C(C)C)cc1

EC50 [12]: > 32 µM (inactive)
EC50 [13]: > 10 µM (inactive)
EC50 [14]: > 32 µM (inactive)
IC50 [15]: > 32 µM (inactive)
IC50 [16]: > 43.8 µM (not active)
IC50 [17]: > 43.8 µM (not active)
IC50 [18]: > 32 µM (inactive)
EC50 [19]: > 32 µM (inactive)
IC50 [20]: > 32 µM (inactive)
SMILES: O=C(c1cnccn1)N(Cc1ccco1)C1(C(=O)NC2CCCC2)CCCCC1
